From a melting point compilation (Tetko et al.; mined from patent text by program, amines drawn as free bases though some values may be those of a salt) come the findings set out here.

Structures are written as SMILES. Where only a bound is given, the exact number is not on record here.

`CC(=O)Nc1cnn2cnc3ccccc3c12` yielded a melting point of 256 to 258 °C. With `CCC(CC)n1nc(C)c2c(NN3CCc4cc(Br)cc(Br)c43)nc(C)nc21` the figure was 190 to 191 °C; with `O=c1oc(-c2ccccc2)cc(O)c1Sc1cccc(C(F)(F)F)c1`, 228 to 229 °C. As for `Cc1ccc(C2c3c(C)c(N4CCN(c5cccnc5)CC4)c(C)c(C)c3OC2(C)C)cc1` (stereo not given), the melting point fell in the range of 136 to 137 °C. In turn, `CCNc1cccc2c(S(=O)(=O)Nc3cnc(Br)cn3)cccc12` came in with a melting point of 220 to 222 °C.

As for `Cc1nc(N)c2ncn(N(C)C)c2c1C`, the melting point lay within 205 to 207 °C. Compound `COCCCn1nnnc1-c1cc(-c2ccc(C(F)(F)F)cc2)c(O)cc1O` came in with a melting point of 98 to 104 °C. As for `CC(=O)c1cccc(-c2c(C)c(NC(=O)CC(C)(C)C)c(C)c3c2OCC3c2ccc(C(C)C)cc2)c1` (stereo not given), the melting point was 209 to 210 °C. With `O=C(CCCCCCC(=O)N1CCN(c2cccc(C(F)(F)F)c2)CC1)NO` the figure was 126 to 128 °C; with `Cc1nc2cc3c(cc2c(=O)[nH]1)C(N(C)c1ccc(C(=O)NC(CCc2nnnn2CC(=O)O)C(=O)O)c(F)c1)CC3` (mixture of isomers), 232 to 235 °C.

The compound `O=CNCC1=CNCN1[C@H]1CCc2c(F)cc(F)cc2C1` showed a melting point of 194 to 195 °C. For the compound `CCCOc1ccccc1-c1ncc(NC(C)=O)c(=O)[nH]1`, the melting point is 195 to 197 °C. With `OP(O)C(C=Cc1ccccc1)NC(c1ccccc1)c1ccccc1` (stereo not given) the figure was 202 to 203 °C; with `COc1ccc2c(C)c(C(=O)C34CC5CC(CC(C5)C3)C4)oc2c1`, 173 to 175 °C; with `COc1ccc(C(=O)Nc2ccccc2)cc1NC(=S)Nc1cc(Cl)cc(Cl)c1`, 195 to 197 °C. With `OCc1cnc2n1-c1ccc(Cl)cc1C(c1ccccc1)=NC2` the figure was 210 to 213 °C; with `CCCC1CCc2cc(OC)c(Cl)c(Cl)c2C1=O` (stereo not given), 127 to 129 °C; with `O=C(OCC1OC(n2ccc(-n3cncn3)nc2=O)C(OC(=O)c2ccccc2)C1OC(=O)c1ccccc1)c1ccccc1` (stereo not given), 83 to 84 °C. With `CCOC(=O)CCCn1ccnc1CSc1ccc(N)cc1` the figure was 74 to 75 °C. With `CCCc1nc2c(N)nc3cccnc3c2n1CCCCN(OC)C(=O)c1ccccc1`, the melting point is 125 to 127 °C.

Take `COc1cc(-c2nc3ccc(OCCN4CCCCC4)cc3n2Cc2ccccc2C(F)(F)F)cc(OC)c1OC`: the melting point is 167 °C. Compound `Cc1ccc(S(=O)(=O)Oc2ccc(C(c3ccc(OS(=O)(=O)c4ccc(C)cc4)c([N+](=O)[O-])c3)(C(F)(F)F)C(F)(F)F)cc2[N+](=O)[O-])cc1` returned a melting point of 206 to 208 °C. The same measure for `CN1CC(CO)CC2(OCCO)c3cccc4[nH]cc(c34)CC12` (stereo not given): 178 to 180 °C; for `CCOP(=O)(COc1ccc(CO)cc1N)OCC`: 181 to 184 °C. The same measure for `N#CCCNC(=O)c1n[nH]cc1NC(=O)c1cccc(C#N)c1`: 248 to 249 °C; for `O=C1CCC2(CCOC2=O)C(=O)C1` (stereo not given): 145 to 148 °C; for `N#CNC(=N)NCCN1CCC(C2(c3ccc(F)cc3)OCCO2)CC1`: 161 to 163 °C. With `CC1CN(c2ccncc2Oc2ccccc2)CCN1` (stereo not given) the figure was 55 to 57 °C. In the case of `COc1ccc(COC(=O)CCc2nc(-c3ccc(Cl)cc3)co2)cc1`, the melting point fell in the range of 69 to 70 °C. The compound `CCCCOCCOc1ccc(-c2ccc(N(C)Cc3cnn(C)c3)c(C=CC(=O)O)c2)cc1` gave a melting point of 125 to 127 °C.

`C=CCNc1nc(NC(C)C)c2scc(C)c2n1`: the melting point is 106 to 107 °C. Compound `CCCCNC(=O)NS(=O)(=O)c1c(SC)cccc1SC` returned a melting point of 151 to 154 °C.

Consider `Fc1ccccc1NC(=S)NCc1ccncc1`, for which the melting point came out at 145 °C. With `CC(C)(C)NC(=O)c1nn(-c2ccc(F)cc2F)c2c1CC1CC2C1(C)C` (stereo not given) the figure was 168 to 171 °C; with `CS(=O)(=O)c1ccc(-c2ccc3cnc(Nc4ccc(C5CCN(CC(N)=O)CC5)cc4)nn23)cc1`, 310 °C; with `COc1ccccc1-n1ccc(=N)cc1`, 121 to 124 °C. In turn, `CCCOc1cc(C)ccc1-c1nc(N)c(N=O)c(=O)[nH]1` gave a melting point of 214 to 216 °C. The same measure for `Cc1oc(-c2ccccc2)nc1COc1ccc(CON=C(CCCCC(N)=O)c2ccccc2)cc1`: 95 to 96 °C; for `CCOC(=O)C(CBr)=C1C(=N)CCCC1=O`: 170 to 175 °C; for `Cc1nc2ccccn2c(=O)c1CCN1CCN(C(=NNc2ccccc2)c2ccccc2F)CC1`: 180 °C. With `NC(=O)C1(O)c2ccccc2S(=O)(=O)N1Cc1ccc(Br)cc1` (stereo not given) the figure was 166 to 168 °C; with `CCOC(=O)C(CC(=O)O)(C(=O)OCC)n1cccc1`, 93 to 94 °C. With `Cc1ccc(CN2CCC(OC(=O)c3ccc(C)cc3)CC2)cc1` the figure was 66 to 77 °C; with `COc1ccc(Cn2c(=O)c3cccnc3n(CCCCBr)c2=O)cc1`, 80 to 82 °C. `CCOP(=S)(OCC)Oc1nsc(N(C)C)n1` gave a melting point of 48 °C.

For `CCOC(=O)COc1cccc2c1C[C@@H](NCc1ccccc1)[C@H](O)C2` (relative stereo), the melting point lay within 93 to 97 °C. For `CC(=O)NCC1CN(c2cc(F)c(N3CCC(n4ccnn4)C(F)C3)c(F)c2)C(=O)O1` (stereo not given), the melting point was in the range of 176 to 178 °C. The compound `CC(C)COC(=O)Nc1ccc(C2(O)CCSCC2)cc1` gave a melting point of 150 to 151 °C. `Cn1c(=O)c2c(ncn2CC(O)Cc2noc(-c3ccccc3)n2)n(C)c1=O` (stereo not given) gave a melting point of 179 to 180 °C.

With `CCS(=O)(=O)c1cc(C(=O)NCC2CCCN2C)c(OC)cc1N` (stereo not given), the melting point was in the range of 126 to 127 °C. Compound `CC(=O)OCC1OC(Cl)C(N=[N+]=[N-])C(OC(C)=O)C1OC1OC(COC(C)=O)C(OC(C)=O)C(OC(C)=O)C1OC(C)=O` (stereo not given) displayed a melting point of 167 to 168 °C. With `CCOC(=O)c1ncn2c1[C@@H]1CCCN1C(=O)c1c-2ccc(F)c1F` the figure was 199 to 200 °C; with `COC(=O)COc1cc2c(c(Cl)c1Cl)C(=O)C(CCOC(C)=O)C2` (stereo not given), 111 to 113 °C. The same measure for `CCCc1c(OCC2COc3cc(CC(=O)OC)ccc3O2)ccc(C(C)=O)c1O` (stereo not given): 72 to 75 °C; for `Oc1ccc2c(-c3cccc4c(O)cccc34)noc2c1`: 258 to 259 °C; for `CCOC(=O)c1cnn2c1nc(OCCC(C)C)c1cnc3c(cnn3CC)c12`: 117 to 118 °C.

`CC(=O)NNC(COCc1cc(C)cc(C)c1)C1c2ccccc2C=Cc2ccccc21` (stereo not given): the melting point is 115 to 117 °C.

`Cc1nnc(SCCCC(=O)NC/C=C\COc2cc(CN3CCCCC3)ccn2)s1` had a melting point of 65 to 68 °C. Compound `CCCCCCCCCCCCC1CC(=C(C#N)C#N)CCC1=C(C#N)C#N` (stereo not given) displayed a melting point of 97 °C.

On to `CCOC(=O)NNC(=O)NCCC(=O)OC`, for which the melting point lay within 105 to 107 °C. Consider `COC(=O)CCN(C(=O)CC(O)C(=O)O)N1CCCCC1` (stereo not given), for which the melting point lay within 54 to 57 °C.

For `CC(C)(O)c1nnc(-c2ccc3ncn(-c4ccc(OC(F)(F)F)cc4)c3c2)o1`, the melting point was 159 to 160 °C. `COC(=O)c1ccc(C(=O)NS(=O)(=O)c2ccc(CCNC(=O)CCC(C)C)cc2)cn1` had a melting point of 204 to 206 °C. Compound `CC(=O)NCCn1ccc2c1-c1cccc(Cl)c1CC2` came in with a melting point of 124 to 126 °C. The compound `COc1ncc(Br)cc1C(O)C=Cc1ccc(Cl)c(Cl)c1` (stereo not given) had a melting point of 149 to 150 °C. With `CC(C)(C)OC(=O)N1CCC(OCc2ccccc2)C1CC(O)Cn1cnc2cccc(F)c2c1=O` (stereo not given) the figure was 219 °C; with `CN(C)c1ccc(NC(=O)N(C[C@H]2CCC[C@H](CN(C(=O)Nc3ccc(N(C)C)cc3)C3CCCC3)C2)C2CCCC2)cc1` (relative stereo), 142 to 147 °C; with `CCOCOC1=C(c2cc(C)ccc2C)C(=O)NC12CCN(OC)CC2`, 150 to 152 °C. The same measure for `COc1ccc(C(=O)CBr)c(F)c1`: 67 to 69 °C; for `Cc1ccc(Nc2nc(-c3cccc(C#N)c3)cs2)nc1`: 268 to 272 °C. In turn, `CCCCCCC(C)Oc1ccc(-c2ccc(C(C)=O)cc2)cc1F` (stereo not given) displayed a melting point of 67.6 to 68.5 °C. Regarding `COC(=O)CCc1cc2c(s1)NC(=O)C(C)N=C2c1ccccc1Cl` (stereo not given), the melting point was 196 to 197 °C.

`CC1(c2cccc(NS(C)(=O)=O)c2)C2CN(C(=O)CCc3cccs3)CC21` (stereo not given) gave a melting point of 184 °C.

Consider `Cc1nc2sccn2c(=O)c1CCN1CCC(n2ccc3ccccc32)CC1`, for which the melting point worked out at 134 °C. With `COC(=O)c1cc(N=Nc2ccc(S(=O)(=O)Cl)cc2)ccc1O`, the melting point is 137 to 138 °C. Consider `CCOC(=O)c1[nH]c2cc(Cl)cc(Cl)c2c1NCC(=O)c1ccccc1F`, for which the melting point was more than 290 °C. With `Nc1c(Cl)cc(C2=NNC(=O)Cc3cc4c(cc32)OCO4)cc1Cl` the figure was 149 to 151 °C. `CC(CCCCOCCCc1ccc(N2CCCC2)cc1)NCC(O)c1cc(O)cc(O)c1` (stereo not given): the melting point is 57 to 60 °C. The same measure for `O[C@@H]1CCC[C@H]1Nc1ccc(Cl)c(Cl)c1` (relative stereo): 167 to 168 °C; for `O=C(O)CN(C(=O)CCCOc1ccc2c(c1)CN1CC(=O)NC1=N2)C1CCCCC1`: 194 to 195 °C; for `Cc1cc(N2CCN(c3ccc(C(F)(F)F)cn3)CC2)cc(C)c1O`: 143 to 144 °C. The compound `CC(=O)OC1CSC(Oc2cncc(-c3c(C)nn(C)c3C)c2)C(OC(C)=O)C1OC(C)=O` (stereo not given) showed a melting point of 166 °C. The same measure for `CC(C)(C)c1cc2c(c(C(C)(C)C)c1)O[Si](c1ccccc1)(c1ccccc1)Oc1c(cc(C(C)(C)C)cc1C(C)(C)C)S2`: 202 to 205 °C; for `S=c1n(CCc2ccc(-c3nnn[nH]3)cc2)ccn1C1CCc2ccccc2C1` (stereo not given): 218 to 220 °C. On to `CCC(CC)Nc1c([N+](=O)[O-])cc(C)c(CO)c1[N+](=O)[O-]`, for which the melting point lay within 51 to 54 °C.

A word on the melting point: it is the temperature, or range, at which the solid turns liquid.
